Reference: patent US10131656B2, “Organic thin film transistor, method of manufacturing organic thin film transistor, organic thin film transistor material, organic thin film transistor composition, organic semiconductor film, and compound” (FUJIFILM Corporation, priority 2015, dated 2018)

Experiment: Evaluation of solubility to organic solvent (saturated solubility at room temperature)
Format: physicochemical
Settings: room temperature (25° C.); for Solubility to organic solvent Solubility (4): saturated solubility in N,N-dimethylformamide; for Solubility to organic solvent Solubility (2): saturated solubility in chloroform; for Solubility to organic solvent Solubility (3): saturated solubility in tetrahydrofuran; for Solubility to organic solvent Solubility (1): saturated solubility in toluene
Experimental: 2 mg of each example compound and comparative compound obtained above were weighed, and the saturated solubility (mass %) at room temperature (25° C.) was calculated from the volume and the specific gravity of toluene, chloroform, tetrahydrofuran, and N,N-dimethylformamide. Those having 2 mass % or greater were as set as “A”, those having 1 mass % or greater and less than 2 mass % were set as “B”, those having 0.1 mass % or greater and less than 1 mass % were set as “C”, and those having less than 0.1 mass % were set as “D”. Saturated solubility (hereinafter also referred to as solubility) of each compound in toluene, chloroform, tetrahydrofuran, and N,N-dimethylformamide was presented as Solubility (1) to (4), in the evaluation results of a first table.

Structure (SMILES) | Solubility to organic solvent Solubility (4) | Solubility to organic solvent Solubility (2) | Solubility to organic solvent Solubility (3) | Solubility to organic solvent Solubility (1)
CCCCCCCCCCC(CCCCCCCC)CCn1c(=O)c2ccc3c4ccc5c(=O)n(CCC(CCCCCCCC)CCCCCCCCCC)c(=O)c6cc7sc8cc(c1=O)c2c3c8c7c4c56 (centres unmarked) [Comparative Compound 1] | B (those having 1 mass % or greater and less than 2 mass % were set as “B”) | A (Those having 2 mass % or greater were as set as “A”) | A (Those having 2 mass % or greater were as set as “A”) | B (those having 1 mass % or greater and less than 2 mass % were set as “B”)
S=c1c2ccc3c4ccc5c(=S)n(C6CCCCC6)c(=S)c6cc7sc8cc(c(=S)n1C1CCCCC1)c2c3c8c7c4c56 [Example Compound 3] | B (those having 1 mass % or greater and less than 2 mass % were set as “B”) | B (those having 1 mass % or greater and less than 2 mass % were set as “B”) | B (those having 1 mass % or greater and less than 2 mass % were set as “B”) | B (those having 1 mass % or greater and less than 2 mass % were set as “B”)
